Drawing on PubChem BioAssay AID1259407 (Chemical Carcinogenesis Research Information System (CCRIS), 2018), this text covers mutagenic call for six molecules.

The subject of this series is CCRIS mutagenicity, Ames/micronucleus/aberration tests. Description: CCRIS mutagenicity studies.
Setting [1] is: Test System: AMES SALMONELLA TYPHIMURIUM, Strain/Indicator: TA98, Metabolic Activation: NONE, Method: PREINCUBATION
[2] abbreviates: Test System: AMES SALMONELLA TYPHIMURIUM, Strain/Indicator: TA100, Metabolic Activation: NONE, Method: PREINCUBATION
The mark [3] stands for this setting: Test System: AMES SALMONELLA TYPHIMURIUM, Strain/Indicator: TA1535, Metabolic Activation: NONE, Method: PREINCUBATION

Active and inactive are the calls of the source. The rule behind the calls is not given here.

On to `Cc1c([N+](=O)[O-])c(C)c([N+](=O)[O-])c(C(C)(C)C)c1[N+](=O)[O-]`, for which the mutagenic call reads like this: under setting [1], “inactive; negative”; (Test System: AMES SALMONELLA TYPHIMURIUM, Strain/Indicator: TA98, Metabolic Activation: NONE, Method: STANDARD PLATE) “inactive; negative”; (Test System: AMES SALMONELLA TYPHIMURIUM, Strain/Indicator: TA98, Metabolic Activation: RAT, LIVER, S-9, AROCLOR 1254, Method: PREINCUBATION) “inactive; negative”; (Test System: AMES SALMONELLA TYPHIMURIUM, Strain/Indicator: TA98, Metabolic Activation: RAT, LIVER, S-9, AROCLOR 1254, Method: STANDARD PLATE) “inactive; negative”; under setting [2], “inactive; negative”; (Test System: AMES SALMONELLA TYPHIMURIUM, Strain/Indicator: TA100, Metabolic Activation: NONE, Method: STANDARD PLATE) “inactive; negative”. The mutagenic call was “inactive; negative” (Test System: AMES SALMONELLA TYPHIMURIUM, Strain/Indicator: TA100, Metabolic Activation: RAT, LIVER, S-9, AROCLOR 1254, Method: PREINCUBATION); “inactive; negative” (Test System: AMES SALMONELLA TYPHIMURIUM, Strain/Indicator: TA100, Metabolic Activation: RAT, LIVER, S-9, AROCLOR 1254, Method: STANDARD PLATE); “inactive; negative” (Test System: MOUSE LYMPHOMA, Strain/Indicator: L5178Y (TK+/TK-), Metabolic Activation: NONE, Method: SUSPENSION/PLATE); “inactive; negative” (Test System: MOUSE LYMPHOMA, Strain/Indicator: L5178Y (TK+/TK-), Metabolic Activation: RAT, LIVER, S-9, AROCLOR 1242 AND 1254 (2:1), Method: SUSPENSION/PLATE); “inactive; negative” (Test System: UDS RAT HEPATOCYTES, Strain/Indicator: THY INCORP, Metabolic Activation: NONE); “inactive; negative” (Test System: UDS RAT HEPATOCYTES, Strain/Indicator: THY INCORP, Metabolic Activation: NONE, Method: IN VIVO-IN VITRO).
Take `CCCCCCCCCCCCO`: the mutagenic call under setting [1] was “inactive; negative”; the mutagenic call (Test System: AMES SALMONELLA TYPHIMURIUM, Strain/Indicator: TA98, Metabolic Activation: RAT, LIVER, S-9, KC 500, Method: PREINCUBATION) was “inactive; negative”; the mutagenic call under setting [2] was “inactive; negative”; the mutagenic call (Test System: AMES SALMONELLA TYPHIMURIUM, Strain/Indicator: TA100, Metabolic Activation: RAT, LIVER, S-9, KC 500, Method: PREINCUBATION) was “inactive; negative”; the mutagenic call under setting [3] is “inactive; negative”; the mutagenic call (Test System: AMES SALMONELLA TYPHIMURIUM, Strain/Indicator: TA1535, Metabolic Activation: RAT, LIVER, S-9, KC 500, Method: PREINCUBATION) was “inactive; negative”. The mutagenic call (Test System: AMES SALMONELLA TYPHIMURIUM, Strain/Indicator: TA1537, Metabolic Activation: NONE, Method: PREINCUBATION) was “inactive; negative”; the mutagenic call (Test System: AMES SALMONELLA TYPHIMURIUM, Strain/Indicator: TA1537, Metabolic Activation: RAT, LIVER, S-9, KC 500, Method: PREINCUBATION) is “inactive; negative”; the mutagenic call (Test System: AMES SALMONELLA TYPHIMURIUM, Strain/Indicator: TA1538, Metabolic Activation: NONE, Method: PREINCUBATION) was “inactive; negative”; the mutagenic call (Test System: AMES SALMONELLA TYPHIMURIUM, Strain/Indicator: TA1538, Metabolic Activation: RAT, LIVER, S-9, KC 500, Method: PREINCUBATION) is “inactive; negative”; the mutagenic call (Test System: E. COLI, Strain/Indicator: WP2 UVRA, Metabolic Activation: NONE, Method: PREINCUBATION) is “inactive; negative”; the mutagenic call (Test System: E. COLI, Strain/Indicator: WP2 UVRA, Metabolic Activation: RAT, LIVER, S-9, KC 500, Method: PREINCUBATION) is “inactive; negative”.
On to `CC1CCCC1`, for which the mutagenic call is “inactive; negative” (Test System: AMES SALMONELLA TYPHIMURIUM, Strain/Indicator: TA97, Metabolic Activation: HAMSTER, LIVER, S-9, AROCLOR 1254 (10%), Method: PREINCUBATION); “inactive; negative” (Test System: AMES SALMONELLA TYPHIMURIUM, Strain/Indicator: TA97, Metabolic Activation: HAMSTER, LIVER, S-9, AROCLOR 1254 (30%), Method: PREINCUBATION); “inactive; negative” (Test System: AMES SALMONELLA TYPHIMURIUM, Strain/Indicator: TA97, Metabolic Activation: NONE, Method: PREINCUBATION); “inactive; negative” (Test System: AMES SALMONELLA TYPHIMURIUM, Strain/Indicator: TA97, Metabolic Activation: RAT, LIVER, S-9, AROCLOR 1254 (10%), Method: PREINCUBATION); “inactive; negative” (Test System: AMES SALMONELLA TYPHIMURIUM, Strain/Indicator: TA97, Metabolic Activation: RAT, LIVER, S-9, AROCLOR 1254 (30%), Method: PREINCUBATION); “inactive; negative” (Test System: AMES SALMONELLA TYPHIMURIUM, Strain/Indicator: TA98, Metabolic Activation: HAMSTER, LIVER, S-9, AROCLOR 1254 (10%), Method: PREINCUBATION). Further, the mutagenic call by setting is: (Test System: AMES SALMONELLA TYPHIMURIUM, Strain/Indicator: TA98, Metabolic Activation: HAMSTER, LIVER, S-9, AROCLOR 1254 (30%), Method: PREINCUBATION) “inactive; negative”; under setting [1], “inactive; negative”; (Test System: AMES SALMONELLA TYPHIMURIUM, Strain/Indicator: TA98, Metabolic Activation: RAT, LIVER, S-9, AROCLOR 1254 (10%), Method: PREINCUBATION) “inactive; negative”; (Test System: AMES SALMONELLA TYPHIMURIUM, Strain/Indicator: TA98, Metabolic Activation: RAT, LIVER, S-9, AROCLOR 1254 (30%), Method: PREINCUBATION) “inactive; negative”; (Test System: AMES SALMONELLA TYPHIMURIUM, Strain/Indicator: TA100, Metabolic Activation: HAMSTER, LIVER, S-9, AROCLOR 1254 (10%), Method: PREINCUBATION) “inactive; negative”; (Test System: AMES SALMONELLA TYPHIMURIUM, Strain/Indicator: TA100, Metabolic Activation: HAMSTER, LIVER, S-9, AROCLOR 1254 (30%), Method: PREINCUBATION) “inactive; negative”. For the same molecule, the mutagenic call reads like this: under setting [2], “inactive; negative”; (Test System: AMES SALMONELLA TYPHIMURIUM, Strain/Indicator: TA100, Metabolic Activation: RAT, LIVER, S-9, AROCLOR 1254 (10%), Method: PREINCUBATION) “inactive; negative”; (Test System: AMES SALMONELLA TYPHIMURIUM, Strain/Indicator: TA100, Metabolic Activation: RAT, LIVER, S-9, AROCLOR 1254 (30%), Method: PREINCUBATION) “inactive; negative”; (Test System: AMES SALMONELLA TYPHIMURIUM, Strain/Indicator: TA1535, Metabolic Activation: HAMSTER, LIVER, S-9, AROCLOR 1254 (10%), Method: PREINCUBATION) “inactive; negative”; (Test System: AMES SALMONELLA TYPHIMURIUM, Strain/Indicator: TA1535, Metabolic Activation: HAMSTER, LIVER, S-9, AROCLOR 1254 (30%), Method: PREINCUBATION) “inactive; negative”; under setting [3], “inactive; negative”. In addition, the mutagenic call (Test System: AMES SALMONELLA TYPHIMURIUM, Strain/Indicator: TA1535, Metabolic Activation: RAT, LIVER, S-9, AROCLOR 1254 (10%), Method: PREINCUBATION) is “inactive; negative” and the mutagenic call (Test System: AMES SALMONELLA TYPHIMURIUM, Strain/Indicator: TA1535, Metabolic Activation: RAT, LIVER, S-9, AROCLOR 1254 (30%), Method: PREINCUBATION) was “inactive; negative”.
For the molecule `O=S(=O)(O)OCc1ccc2ccc3cccc4ccc1c2c34`, the mutagenic call under setting [1] was “active; positive”.
Turning to `CCOC(=O)N(C)C`, the mutagenic call (Test System: AMES SALMONELLA TYPHIMURIUM, Strain/Indicator: TA98, Metabolic Activation: NONE) is “inactive; negative”; the mutagenic call (Test System: AMES SALMONELLA TYPHIMURIUM, Strain/Indicator: TA100, Metabolic Activation: NONE) is “inactive; negative”; the mutagenic call (Test System: AMES SALMONELLA TYPHIMURIUM, Strain/Indicator: TA1535, Metabolic Activation: NONE) was “active; positive”; the mutagenic call (Test System: AMES SALMONELLA TYPHIMURIUM, Strain/Indicator: TA1535, Metabolic Activation: S-9, AROCLOR 1254) is “active; positive”.
Take `c1ccc(Cn2ccnc2)cc1`: the mutagenic call under setting [1] was “inactive; negative”; the mutagenic call (Test System: AMES SALMONELLA TYPHIMURIUM, Strain/Indicator: TA98, Metabolic Activation: RAT, LIVER, S-9, N-BENZYLIMIDAZOLE, Method: PREINCUBATION) was “inactive; negative”; the mutagenic call (Test System: AMES SALMONELLA TYPHIMURIUM, Strain/Indicator: TA98, Metabolic Activation: RAT, LIVER, S-9, Method: PREINCUBATION) is “inactive; negative”; the mutagenic call under setting [2] is “inactive; negative”; the mutagenic call (Test System: AMES SALMONELLA TYPHIMURIUM, Strain/Indicator: TA100, Metabolic Activation: RAT, LIVER, S-9, N-BENZYLIMIDAZOLE, Method: PREINCUBATION) is “active; positive”; the mutagenic call (Test System: AMES SALMONELLA TYPHIMURIUM, Strain/Indicator: TA100, Metabolic Activation: RAT, LIVER, S-9, Method: PREINCUBATION) is “active; positive”.
